According to PubChem BioAssay (NCI):
“And” between values parts separate entries of the source, which are not always exact repeats. Equal entries are not always repeated.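 Interpolation was linear, between the two tested concentrations surrounding the appropriate level; five concentrations were tested over 48 hours in 96-well plates. The concentration for 50% growth inhibition is given as GI50. TGI: concentration producing complete growth inhibition.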

Key:
Assay in all cases: NCI anticancer screen, dose series, 48 h
[1] = tested on: RPMI-8226 leukemia
[2] = tested on: KM12 colon
[3] = tested on: A549 NSCLC
[4] = tested on: SK-MEL-28 melanoma
[5] = tested on: OVCAR-8 ovarian
[6] = tested on: IGROV1 ovarian
[7] = tested on: SF-539 CNS
[8] = tested on: RXF 393 renal
[9] = tested on: SK-OV-3 ovarian
[10] = tested on: NCI-H522 lung

SMILES | GI50 [1] [µM] | TGI [1] [µM] | GI50 [2] [µM] | TGI [2] [µM] | GI50 [3] [µM] | TGI [3] | GI50 [4] | TGI [4] | GI50 [5] [µM] | TGI [5] | GI50 [6] [µM] | TGI [6] | GI50 [7] [µM] | TGI [7] [µM] | GI50 [8] [µM] | TGI [8] | GI50 [9] [µM] | TGI [9] | GI50 [10] | TGI [10]
COc1ccccc1OCC(O)CO (stereo not given) | > 100 | > 100 | > 100 | > 100 | > 100 | > 100 µM | > 100 µM | > 100 µM | > 100 | > 100 µM | > 100 | > 100 µM | > 100 | > 100 | > 100 | > 100 µM | > 100 | > 100 µM | > 100 µM | > 100 µM
S=C1OC2C3C4CC5C3C(O1)C1C5C4C21 (stereo not given) |  | > 100 |  | > 100 |  | > 100 µM |  | > 100 µM |  | > 100 µM |  | > 100 µM |  | > 100 |  | > 100 µM |  | > 100 µM |  | > 100 µM
C/C(=N\N=C(N)N)c1sc(-c2nc(C)c(/C(C)=N/N=C(N)N)s2)nc1C |  | > 100 |  | > 100 |  | > 100 µM |  | > 100 µM |  | > 100 µM |  | > 100 µM |  | > 100 |  | > 95.3 µM |  | > 100 µM |  | > 77 µM
CN1C=CN(Cc2ccc(-c3ccccn3)nc2)[CH-]1.CN1C=CN(Cc2ccc(-c3ccccn3)nc2)[CH-]1.[Au+3] | 1.34 | 20.1 | 1.89 | > 38.2 | 8.69 | > 100 µM | 2.47 µM | 14.5 µM | 3.19 | > 100 µM | 1.42 | 10.3 µM | 2.34 | 10.3 | 1.88 | 17.8 µM | 9.32 | > 56.7 µM | 0.104 µM | 0.494 µM
Cc1cc(C(=O)NCCN(C)C)c2nc3ccccc3nc2c1 |  | 41.2 |  | 23.8 |  | > 58.7 µM |  | 16.1 µM |  | > 76.6 µM |  | > 29.5 µM |  | 19.4 |  | 19.7 µM |  | > 46 µM |  | > 100 µM
Cc1ccc(S(=O)(=O)ON=C2CC(c3ccccc3)N(C)C(c3ccccc3)C2)cc1 (stereo not given) |  | 48.2 |  | 34.1 |  | 63.1 µM and 55.1 µM |  | 54.3 µM and 49 µM |  | 35.6 µM and 36.5 µM |  | 62.1 µM and 56.7 µM |  | 36 |  | 48 µM and 71.6 µM |  | 44.9 µM and 47.7 µM |  | 27.4 µM and 25.2 µM
C1CCN2CC34CC(CC5CCCN(C6CCCC3N6)C54)C2C1 (stereo not given) |  | > 100 |  | > 100 |  | > 100 µM |  | > 100 µM |  | > 100 µM |  | > 100 µM |  | > 100 |  | > 100 µM |  | > 100 µM |  | > 100 µM
COc1ccc(-c2nc(N)nc(-c3cc(C)ccc3O)c2Cl)cc1 |  | > 100 |  | > 100 |  | > 100 µM |  | > 100 µM |  | > 100 µM |  | > 100 µM |  | > 100 |  | 99.7 µM |  | 94.2 µM |  | > 100 µM
Clc1ccc(CCN2CCOCC2)c(Cl)c1 |  | > 100 |  | > 100 |  | > 100 µM |  | > 100 µM |  | > 100 µM |  | > 100 µM |  | > 100 |  | > 100 µM |  | > 100 µM |  | > 100 µM
CCc1ccc(/C=C2/SC(=S)NC2=O)cc1 | 16.5 | > 76 | 25.1 | > 77.3 | 20.8 | > 80.2 µM | 22.9 µM | 79.7 µM | 25.9 | > 88.8 µM | 37.5 | > 100 µM | 21 | 56.6 | 18.9 | 55.7 µM | 24.6 | 74.9 µM | 15 µM | 43.8 µM
Cc1nc(Nc2ccc([N+](=O)[O-])cc2)sc1C(=O)/C=C/c1ccc(N(C)C)cc1 |  | > 100 |  | > 100 |  | > 100 µM |  | > 100 µM |  | > 100 µM |  | > 100 µM |  | > 100 |  | > 100 µM |  | > 100 µM |  | > 100 µM
COc1cc(C(=O)c2c(-c3ccccc3)oc3ccccc23)cc(OC)c1O | 1.83 | 12.9 | 3.99 | 16.5 | 4.41 | > 100 µM | 10.4 µM | 25.1 µM | 4.8 | 83.9 µM | 2.6 | 18.7 µM | 1.64 | 5.63 | 1.76 | 8.95 µM | 6.24 | 52.1 µM | 0.773 µM | 19.6 µM
O=C(Nc1ccc(-c2nc3ccc(NC(=O)c4ccc(Cl)cc4)cc3[nH]2)cc1)c1ccc(Cl)cc1 | 5.77 | 23 | 2.16 | 5.38 | 2.05 | 5.08 µM | 2.78 µM | 14.9 µM | 1.73 | 6.93 µM | 6.73 | 19.6 µM | 0.0709 | 6.22 | 0.0186 | 1.93 µM | 11.8 | 24.2 µM | 2.95 µM | 9.36 µM
Cn1cc(/C=C2\C(=O)Nc3cccnc32)c2ccccc21 | > 25 | > 25 | 0.885 | > 25 | 11.8 | > 25 µM | > 25 µM | > 25 µM | 16.9 | > 25 µM | 6.82 | > 25 µM | > 25 | > 25 | 10.8 | > 25 µM | 17 | > 25 µM | 14.7 µM | > 25 µM
C=C1C(=O)C23C(CC(OC(C)=O)C1[C@@H]2OC(C)=O)C1(C)C(OC(C)=O)CCC(C)(C)C1C[C@@H]3OC(C)=O (stereo not given in full) |  | 4.68 |  | 3.49 |  | 3.05 µM |  | 3.3 µM |  | 1.59 µM |  | 2.87 µM |  | 3.16 |  | 0.831 µM |  | 3.59 µM |  | 1.66 µM
O=C(O)C(O)C(O)C1[O][Sb][O]C1CO (stereo not given) | > 100 | > 100 | > 100 | > 100 | > 100 | > 100 µM | > 100 µM and 13.7 µM | > 100 µM and 43.4 µM | > 100 | > 100 µM | > 100 | > 100 µM | > 100 | > 100 | > 100 | > 100 µM | > 100 | > 100 µM | > 100 µM and 14 µM | > 100 µM and 38.9 µM
CC12CC(=O)NN=C1c1ccccc1C2 (stereo not given) |  | > 100 |  | > 100 |  | > 100 µM |  | > 100 µM |  | > 100 µM |  | > 100 µM |  | > 100 |  | > 100 µM |  | > 100 µM |  | > 100 µM
Cc1cc(C#Cc2ccccc2)ccc1-n1c(/C=C/c2ccc(O)cc2)nc2ccccc2c1=O | 2.33 | > 100 | 3.24 | 12.6 | 3.14 | > 100 µM | 4.54 µM | > 100 µM | 3.98 | > 100 µM | 20.6 | > 100 µM | 5.65 | > 100 | 3.51 | > 100 µM | 9.91 | > 100 µM | 2.26 µM | 27.3 µM
Fc1ccc(-c2c(-c3ccncc3)n(CCN3CCOCC3)c3cccnc23)cc1 | > 25 | > 25 | > 25 | > 25 | > 25 | > 25 µM | > 25 µM | > 25 µM | > 25 | > 25 µM | > 25 | > 25 µM | > 25 | > 25 | > 25 | > 25 µM | > 25 | > 25 µM | > 25 µM | > 25 µM
COc1ccc2c3c([nH]c2c1)[C@H]1C[C@H]2[C@H](C[C@@H](O)[C@H](OC)[C@H]2C(=O)O)CN1CC3 |  | > 100 |  | > 100 |  | > 100 µM |  | > 100 µM |  | > 100 µM |  | > 100 µM |  | > 100 |  | > 100 µM |  | > 100 µM |  | > 100 µM
